Experimental data: patent US20260176320A1, “MODULATORS OF G-PROTEIN COUPLED RECEPTORS” (priority 2018, published 2026)
Where two headings read alike, the source gives them in different places. Numbered stars: 1 amine (or outer) side, 2 acyl side, 3 side chain; on linkers, the order of the positions; unused ones are H or OH. Square brackets hold non-standard residues; d marks the D form. Side chains are listed from the residue outwards. Peptide text beside a SMILES is read from it. * marks the point of attachment. X8 = O=C([C@@H](Cc1nn[nH]n1)N[*:1])[*:2]; γGlu = O=C(O)[C@H](CCC(=O)[*:2])N[*:1]; Palmitoyl = CCCCCCCCCCCCCCCC(=O)*; X6 = O=C(CSCC(=O)*)NCCN1CCCCC1=O; Aib = CC(C)(N)C(=O)O

Key:
GLP-1R = GLP-1R (Homo sapiens, UniProt P43220); assay: HitHunter cAMP assay (GLP-1R); assay type: cell-based; details: Table 3A, cAMP; for Emax: read-out: (Emax) GLP-1R
Sequence of GLP-1R (P43220 24-463): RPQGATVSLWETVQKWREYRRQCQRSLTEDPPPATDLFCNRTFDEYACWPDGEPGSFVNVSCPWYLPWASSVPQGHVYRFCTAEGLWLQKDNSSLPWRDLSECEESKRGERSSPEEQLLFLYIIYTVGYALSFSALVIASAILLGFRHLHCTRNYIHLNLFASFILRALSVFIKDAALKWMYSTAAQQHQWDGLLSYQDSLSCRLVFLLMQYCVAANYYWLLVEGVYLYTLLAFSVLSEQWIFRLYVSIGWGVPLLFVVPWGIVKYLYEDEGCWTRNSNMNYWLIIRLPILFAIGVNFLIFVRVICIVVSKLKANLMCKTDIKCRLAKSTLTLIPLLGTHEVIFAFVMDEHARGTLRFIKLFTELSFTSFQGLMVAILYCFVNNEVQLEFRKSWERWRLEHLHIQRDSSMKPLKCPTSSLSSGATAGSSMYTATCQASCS
How it was run: (§1)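 Luminescent readout of cAMP by enzyme-fragment immunocompetition gave agonist concentration-response data. Cells (10,000/well) sat in HBSS buffer containing IBMX 625 μM, HEPES 10 mM and BSA 0.2%, exposed to agonist for 30 min at room temperature.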

GIP-R = target: T1, GIP-R (Homo sapiens, UniProt P48546); assay: HitHunter cAMP assay (GIP-R); assay type: cell-based; details: Table 3A, cAMP; for Emax: read-out: (Emax) GIP-R
T1 sequence (P48546 22-466): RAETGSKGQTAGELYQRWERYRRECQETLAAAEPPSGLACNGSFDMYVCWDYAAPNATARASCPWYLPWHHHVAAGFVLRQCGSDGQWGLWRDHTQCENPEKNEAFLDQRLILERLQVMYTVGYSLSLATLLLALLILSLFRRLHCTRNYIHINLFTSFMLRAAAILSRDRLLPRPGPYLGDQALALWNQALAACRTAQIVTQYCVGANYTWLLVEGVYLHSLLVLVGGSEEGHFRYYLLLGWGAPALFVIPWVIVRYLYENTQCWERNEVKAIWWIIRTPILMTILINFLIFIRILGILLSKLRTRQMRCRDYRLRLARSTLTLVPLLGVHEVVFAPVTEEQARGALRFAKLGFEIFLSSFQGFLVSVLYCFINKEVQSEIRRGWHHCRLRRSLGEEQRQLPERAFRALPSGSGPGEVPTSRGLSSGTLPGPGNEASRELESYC
How it was run: as §1

| Structure (SMILES) | Emax (GLP-1R) [%] | EC50 (GLP-1R; read-out: EC50 GLP-1R/nM) [nM] | Emax (GIP-R) [%] | EC50 (GIP-R; read-out: EC50 GIP-R/nM) [nM] | EC50 (GLP-1R; EC50 GLP-1R/nM) [nM] | EC50 (GIP-R; EC50 GIP-R/nM) [nM] |
| --- | --- | --- | --- | --- | --- | --- |
| CCCCCCCCCCCCCCCC(=O)N[C@@H](CCC(=O)NCCCC[C@H](NC(=O)[C@H](CO)NC(=O)[C@@H]1CCCN1C(=O)[C@@H]1CCCN1C(=O)[C@@H]1CCCN1C(=O)[C@H](C)NC(=O)CNC(=O)[C@H](CO)NC(=O)[C@H](CO)NC(=O)[C@@H]1CCCN1C(=O)CNC(=O)CNC(=O)[C@H](C)NC(=O)[C@H](CC(C)C)NC(=O)[C@H](CC(C)C)NC(=O)[C@H](Cc1c[nH]c2ccccc12)NC(=O)[C@H](CC(N)=O)NC(=O)[C@@H](NC(=O)[C@H](Cc1ccccc1)NC(=O)[C@H](CCC(=O)O)NC(=O)C(C)(C)NC(=O)[C@H](C)NC(=O)[C@H](C)NC(=O)[C@H](CCC(N)=O)NC(=O)[C@H](CCCCN)NC(=O)[C@H](CC(=O)O)NC(=O)[C@H](CC(C)C)NC(=O)[C@H](Cc1ccc(O)cc1)NC(=O)[C@@H](NC(=O)[C@H](CO)NC(=O)[C@H](Cc1ccc(O)cc1)NC(=O)[C@H](CC(=O)O)NC(=O)[C@H](CO)NC(=O)[C@@H](NC(=O)[C@H](Cc1ccccc1)NC(=O)[C@@H](NC(=O)CNC(=O)[C@@H](Cc1nn[nH]n1)NC(=O)CSCC(=O)NCCN1CCCCC1=O)[C@@H](C)O)[C@@H](C)O)[C@@H](C)CC)C(C)C)C(N)=O)C(=O)O [Compound 224] (X6-[X8]GTFTSDYSIYLDKQAA[Aib]EFVNWLLAGGPSSGAPPPSK([γGlu-Palmitoyl])-NH2) | 98 | 0.1 to 1 | 76 | 10 to 100 |  |  |
| CCCCCCCCCCCCCCCC(=O)N[C@@H](CCC(=O)NCCCC[C@H](NC(=O)[C@H](CO)NC(=O)[C@@H]1CCCN1C(=O)[C@@H]1CCCN1C(=O)[C@@H]1CCCN1C(=O)[C@H](C)NC(=O)CNC(=O)[C@H](CO)NC(=O)[C@H](CO)NC(=O)[C@@H]1CCCN1C(=O)CNC(=O)CNC(=O)[C@H](C)NC(=O)[C@H](CC(C)C)NC(=O)[C@H](CC(C)C)NC(=O)[C@H](Cc1c[nH]c2ccccc12)NC(=O)[C@H](CC(N)=O)NC(=O)[C@@H](NC(=O)[C@H](Cc1ccccc1)NC(=O)[C@H](CCC(=O)O)NC(=O)C(C)(C)NC(=O)[C@H](C)NC(=O)[C@H](C)NC(=O)[C@H](CCC(N)=O)NC(=O)[C@H](CCCCN)NC(=O)[C@H](CC(=O)O)NC(=O)[C@H](CC(C)C)NC(=O)[C@H](Cc1ccc(O)cc1)NC(=O)[C@@H](NC(=O)[C@H](CO)NC(=O)[C@H](Cc1ccc(O)cc1)NC(=O)[C@H](CC(=O)O)NC(=O)[C@H](CO)NC(=O)[C@@H](NC(=O)[C@H](Cc1ccccc1)NC(=O)[C@@H](NC(=O)CNC(=O)[C@H](CCC(=O)O)NC(=O)CSCC(=O)NCCN1C(=O)c2ccc(C)cc2C1=O)[C@@H](C)O)[C@@H](C)O)[C@@H](C)CC)C(C)C)C(N)=O)C(=O)O [Compound 247] | 102 |  | 110 |  | 0.1 to 1 | < 0.1 |
| CCCCCCCCCCCCCCCC(=O)N[C@@H](CCC(=O)NCCCC[C@H](NC(=O)[C@H](CO)NC(=O)[C@@H]1CCCN1C(=O)[C@@H]1CCCN1C(=O)[C@@H]1CCCN1C(=O)[C@H](C)NC(=O)CNC(=O)[C@H](CO)NC(=O)[C@H](CO)NC(=O)[C@@H]1CCCN1C(=O)CNC(=O)CNC(=O)[C@H](C)NC(=O)[C@H](CC(C)C)NC(=O)[C@H](CC(C)C)NC(=O)[C@H](Cc1c[nH]c2ccccc12)NC(=O)[C@H](CC(N)=O)NC(=O)[C@@H](NC(=O)[C@H](Cc1ccccc1)NC(=O)[C@H](CCC(=O)O)NC(=O)C(C)(C)NC(=O)[C@H](C)NC(=O)[C@H](C)NC(=O)[C@H](CCC(N)=O)NC(=O)[C@H](CCCCN)NC(=O)[C@H](CC(=O)O)NC(=O)[C@H](CC(C)C)NC(=O)[C@H](Cc1ccc(O)cc1)NC(=O)[C@@H](NC(=O)[C@H](CO)NC(=O)[C@H](Cc1ccc(O)cc1)NC(=O)[C@H](CC(=O)O)NC(=O)[C@H](CO)NC(=O)[C@@H](NC(=O)[C@H](Cc1ccccc1)NC(=O)[C@@H](NC(=O)CNC(=O)[C@H](CCC(=O)O)NC(=O)CSCC(=O)NCCN1C(=O)c2cccc3cccc(c23)C1=O)[C@@H](C)O)[C@@H](C)O)[C@@H](C)CC)C(C)C)C(N)=O)C(=O)O [Compound 248] | 80 | 10 to 100 | 105 | 1 to 10 |  |  |
| CCCCCCCCCCCCCCCC(=O)N[C@@H](CCC(=O)NCCCC[C@H](NC(=O)[C@H](CO)NC(=O)[C@@H]1CCCN1C(=O)[C@@H]1CCCN1C(=O)[C@@H]1CCCN1C(=O)[C@H](C)NC(=O)CNC(=O)[C@H](CO)NC(=O)[C@H](CO)NC(=O)[C@@H]1CCCN1C(=O)CNC(=O)CNC(=O)[C@H](C)NC(=O)[C@H](CC(C)C)NC(=O)[C@H](CC(C)C)NC(=O)[C@H](Cc1c[nH]c2ccccc12)NC(=O)[C@H](CC(N)=O)NC(=O)[C@@H](NC(=O)[C@H](Cc1ccccc1)NC(=O)[C@H](CCC(=O)O)NC(=O)C(C)(C)NC(=O)[C@H](C)NC(=O)[C@H](C)NC(=O)[C@H](CCC(N)=O)NC(=O)[C@H](CCCCN)NC(=O)[C@H](CC(=O)O)NC(=O)[C@H](CC(C)C)NC(=O)[C@H](Cc1ccc(O)cc1)NC(=O)[C@@H](NC(=O)[C@H](CO)NC(=O)[C@H](Cc1ccc(O)cc1)NC(=O)[C@H](CC(=O)O)NC(=O)[C@H](CO)NC(=O)[C@@H](NC(=O)[C@H](Cc1ccccc1)NC(=O)[C@@H](NC(=O)CNC(=O)[C@H](CCC(=O)O)NC(=O)CSCC(=O)NCCN1C(=O)c2cc3ccccc3cc2C1=O)[C@@H](C)O)[C@@H](C)O)[C@@H](C)CC)C(C)C)C(N)=O)C(=O)O [Compound 249] | 101 |  | 105 |  | 10 to 100 | 1 to 10 |
| CCCCCCCCCCCCCCCC(=O)N[C@@H](CCC(=O)NCCCC[C@H](NC(=O)[C@H](CO)NC(=O)[C@@H]1CCCN1C(=O)[C@@H]1CCCN1C(=O)[C@@H]1CCCN1C(=O)[C@H](C)NC(=O)CNC(=O)[C@H](CO)NC(=O)[C@H](CO)NC(=O)[C@@H]1CCCN1C(=O)CNC(=O)CNC(=O)[C@H](C)NC(=O)[C@H](CC(C)C)NC(=O)[C@H](CC(C)C)NC(=O)[C@H](Cc1c[nH]c2ccccc12)NC(=O)[C@H](CC(N)=O)NC(=O)[C@@H](NC(=O)[C@H](Cc1ccccc1)NC(=O)[C@H](CCC(=O)O)NC(=O)C(C)(C)NC(=O)[C@H](C)NC(=O)[C@H](C)NC(=O)[C@H](CCC(N)=O)NC(=O)[C@H](CCCCN)NC(=O)[C@H](CC(=O)O)NC(=O)[C@H](CC(C)C)NC(=O)[C@H](Cc1ccc(O)cc1)NC(=O)[C@@H](NC(=O)[C@H](CO)NC(=O)[C@H](Cc1ccc(O)cc1)NC(=O)[C@H](CC(=O)O)NC(=O)[C@H](CO)NC(=O)[C@@H](NC(=O)[C@H](Cc1ccccc1)NC(=O)[C@@H](NC(=O)CNC(=O)[C@H](CCC(=O)O)NC(=O)C(C)(C)C(=O)NCCn1ccccc1=O)[C@@H](C)O)[C@@H](C)O)[C@@H](C)CC)C(C)C)C(N)=O)C(=O)O [Compound 254] |  | < 0.1 | 80 | 1 to 10 |  |  |
| CCCCCCCCCCCCCCCC(=O)N[C@@H](CCC(=O)NCCCC[C@H](NC(=O)[C@H](CO)NC(=O)[C@@H]1CCCN1C(=O)[C@@H]1CCCN1C(=O)[C@@H]1CCCN1C(=O)[C@H](C)NC(=O)CNC(=O)[C@H](CO)NC(=O)[C@H](CO)NC(=O)[C@@H]1CCCN1C(=O)CNC(=O)CNC(=O)[C@H](C)NC(=O)[C@H](CC(C)C)NC(=O)[C@H](CC(C)C)NC(=O)[C@H](Cc1c[nH]c2ccccc12)NC(=O)[C@H](CC(N)=O)NC(=O)[C@@H](NC(=O)[C@H](Cc1ccccc1)NC(=O)[C@H](CCC(=O)O)NC(=O)C(C)(C)NC(=O)[C@H](C)NC(=O)[C@H](C)NC(=O)[C@H](CCC(N)=O)NC(=O)[C@H](CCCCN)NC(=O)[C@H](CC(=O)O)NC(=O)[C@H](CC(C)C)NC(=O)[C@H](Cc1ccc(O)cc1)NC(=O)[C@@H](NC(=O)[C@H](CO)NC(=O)[C@H](Cc1ccc(O)cc1)NC(=O)[C@H](CC(=O)O)NC(=O)[C@H](CO)NC(=O)[C@@H](NC(=O)[C@H](Cc1ccccc1)NC(=O)[C@@H](NC(=O)CNC(=O)[C@H](CCC(=O)O)NC(=O)C(C)(C)C(=O)NCCN1CCOCC1=O)[C@@H](C)O)[C@@H](C)O)[C@@H](C)CC)C(C)C)C(N)=O)C(=O)O [Compound 257] |  | < 0.1 | 40 | 10 to 100 |  |  |
| CCCCCCCCCCCCCCCC(=O)N[C@@H](CCC(=O)NCCCC[C@H](NC(=O)[C@H](CO)NC(=O)[C@@H]1CCCN1C(=O)[C@@H]1CCCN1C(=O)[C@@H]1CCCN1C(=O)[C@H](C)NC(=O)CNC(=O)[C@H](CO)NC(=O)[C@H](CO)NC(=O)[C@@H]1CCCN1C(=O)CNC(=O)CNC(=O)[C@H](C)NC(=O)[C@H](CC(C)C)NC(=O)[C@H](CC(C)C)NC(=O)[C@H](Cc1c[nH]c2ccccc12)NC(=O)[C@H](CC(N)=O)NC(=O)[C@@H](NC(=O)[C@H](Cc1ccccc1)NC(=O)[C@H](CCC(=O)O)NC(=O)C(C)(C)NC(=O)[C@H](C)NC(=O)[C@H](C)NC(=O)[C@H](CCC(N)=O)NC(=O)[C@H](CCCCN)NC(=O)[C@H](CC(=O)O)NC(=O)[C@H](CC(C)C)NC(=O)[C@H](Cc1ccc(O)cc1)NC(=O)[C@@H](NC(=O)[C@H](CO)NC(=O)[C@H](Cc1ccc(O)cc1)NC(=O)[C@H](CC(=O)O)NC(=O)[C@H](CO)NC(=O)[C@@H](NC(=O)[C@H](Cc1ccccc1)NC(=O)[C@@H](NC(=O)CNC(=O)[C@H](CCC(=O)O)NC(=O)CCNC(=O)CCN1CCCCCC1=O)[C@@H](C)O)[C@@H](C)O)[C@@H](C)CC)C(C)C)C(N)=O)C(=O)O [Compound 267] | 100 |  | 40 | 10 to 100 |  |  |
